Results: patent US11504367B2, “Compounds and methods for treating oxalate-related diseases” (OxaluRx, Inc., priority 2019, dated 2022)
pIC50: −log10 of the molar value.

How the values were obtained:
[1] = In-vivo pharmacokinetic evaluation (exposure, AUC fold-over Example 1); conditions: male CD-1 mice, 10 mg/kg oral gavage in 20% (2-Hydroxypropyl)-β-cyclodextrin, plasma at 0.5, 2 and 6 hours post-dose; AUC expressed as fold-over Example 1
Method: In-vivo exposure of test compounds was determined in 5-6 week old male CD-1 mice. Mice (n=2/compound) received 10 mg/kg of each compound formulated in 20% (2-Hydroxypropyl)-β-cyclodextrin (10 μL/g) by oral gavage. At 0.5 hours, 2 hours, and 6 hours post-dose, blood samples were collected from the submandibular vein using EDTA as an anticoagulant and stored on ice. Plasma samples were obtained by centrifugation at 4° C. and were analyzed immediately or stored at −20° C. until analysis. Compounds were extracted from mouse plasma with acetonitrile and quantified by LC-MS-MS in the negative ion mode using a standard curve.

[2] = biological target: recombinant full-length human hydroxyacid oxidase 1 (HAO1), the equivalents of hGOX (Homo sapiens (Human), UniProt Q9UJM8); assay: In-vitro human glycolate oxidase (hGOX) assay (Amplex red fluorescence); assay type: biochemical; conditions: 6 nM recombinant human GO, 85 μM glycolate, 10 min preincubation
Chain of recombinant full-length human hydroxyacid oxidase 1 (HAO1), the equivalents of hGOX (Q9UJM8 whole entry): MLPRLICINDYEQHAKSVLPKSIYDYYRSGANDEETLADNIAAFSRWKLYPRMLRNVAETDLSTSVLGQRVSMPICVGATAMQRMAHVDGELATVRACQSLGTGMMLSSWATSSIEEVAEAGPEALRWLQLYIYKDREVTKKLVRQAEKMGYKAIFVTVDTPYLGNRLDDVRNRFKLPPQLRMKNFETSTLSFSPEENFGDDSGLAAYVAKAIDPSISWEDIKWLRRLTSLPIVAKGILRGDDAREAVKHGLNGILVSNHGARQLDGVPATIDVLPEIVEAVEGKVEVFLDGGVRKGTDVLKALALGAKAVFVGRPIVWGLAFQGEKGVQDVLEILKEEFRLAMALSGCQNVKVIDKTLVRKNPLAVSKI
Summary of the method: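 Activity was read as Amplex Red fluorescence (560/590 nm), with 50 μM reagent added after a 10 min room-temperature incubation. The enzyme, full-length human HAO1, was in pH 7.4 HEPES buffer containing KCl, NaCl, MgCl2 and 0.01% Triton X-100.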

AUC Fold over Ex. 1 [1] | pIC50 [2] | Structure (SMILES)
2.4 | 8.30 | O=C(O)c1nn[nH]c1Oc1cccc(C#CCc2ccc(F)cc2)c1 [Example 354, 5-(3-(3-(4-Fluorophenyl)prop-1-ynyl)phenoxy)-1H-1,2,3-triazole-4-carboxylic Acid]
0.7 | 8.52 | O=C(O)c1nn[nH]c1Oc1cccc(C#CCC2CCCCC2)c1 [Example 346, 5-(3-(3-Cyclohexylprop-1-ynyl)phenoxy)-1H-1,2,3-triazole-4-carboxylic Acid]
0.2 | 8.52 | O=C(O)c1nn[nH]c1Oc1cccc(C#Cc2cccnc2)c1 [Example 312, 5-(3-(2-(Pyridin-3-yl)ethynyl)phenoxy)-1H-1,2,3-triazole-4-carboxylic Acid]
0.7 | 7.82 | O=C(O)c1nn[nH]c1Oc1ccc(C#CCC2CC2)cc1 [Example 301, 5-(4-(3-Cyclopropylprop-1-ynyl)phenoxy)-1H-1,2,3-triazole-4-carboxylic Acid]
1.9 | 8.40 | O=C(O)c1nn[nH]c1Oc1cccc(C#CCC2CCCC2)c1 [Example 344, 5-(3-(3-Cyclopentylprop-1-ynyl)phenoxy)-1H-1,2,3-triazole-4-carboxylic Acid]
0.4 | 8.70 | O=C(O)c1nn[nH]c1Oc1cccc(C#Cc2nccs2)c1 [Example 342, 5-(3-(2-(Thiazol-2-yl)ethynyl)phenoxy)-1H-1,2,3-triazole-4-carboxylic Acid]
0.7 | 7.80 | O=C(O)c1nn[nH]c1Oc1cccc(C#CCC(F)(F)F)c1 [Example 306, 5-(3-(4,4,4-Trifluorobut-1-ynyl)phenoxy)-1H-1,2,3-triazole-4-carboxylic Acid]
0.3 | 7.74 | O=C(O)c1nn[nH]c1Oc1ccc(C#CCC(F)(F)F)cc1 [Example 305, 5-(4-(4,4,4-Trifluorobut-1-ynyl)phenoxy)-1H-1,2,3-triazole-4-carboxylic Acid]
1.6 | 7.92 | CCC#Cc1cccc(Oc2[nH]nnc2C(=O)O)c1 [Example 304, 5-(3-(But-1-ynyl)phenoxy)-1H-1,2,3-triazole-4-carboxylic Acid]
2.6 | 8.10 | O=C(O)c1nn[nH]c1Oc1cccc(C#CCC2CCC2)c1 [Example 345, 5-(3-(3-Cyclobutylprop-1-ynyl)phenoxy)-1H-1,2,3-triazole-4-carboxylic Acid]
0.0 | 9.00 | O=C(O)c1nn[nH]c1Oc1cccc(C#Cc2ccc3[nH]ncc3c2)c1 [Example 307, 5-(3-(2-(1H-Indazol-5-yl)ethynyl)phenoxy)-1H-1,2,3-triazole-4-carboxylic Acid]
2.5 | 8.05 | CCCC#Cc1cccc(Oc2[nH]nnc2C(=O)O)c1 [Example 300, 5-(3-(Pent-1-ynyl)phenoxy)-1H-1,2,3-triazole-4-carboxylic Acid]
1.5 | 7.44 | CCC#Cc1ccc(Oc2[nH]nnc2C(=O)O)cc1 [Example 303, 5-(4-(But-1-ynyl)phenoxy)-1H-1,2,3-triazole-4-carboxylic Acid]
0.3 | 8.70 | Cn1ncc2c(C#Cc3cccc(Oc4[nH]nnc4C(=O)O)c3)cccc21 [Example 315, 5-(3-(2-(1-Methyl-1H-indazol-4-yl)ethynyl)phenoxy)-1H-1,2,3-triazole-4-carboxylic Acid]
0.7 | 7.68 | O=C(O)c1nn[nH]c1Oc1cccc(C#CC2CCC(F)(F)CC2)c1 [Example 347, 5-(3-(2-(4,4-Difluorocyclohexyl)ethynyl)phenoxy)-1H-1,2,3-triazole-4-carboxylic Acid]
– | 8.30 | O=C(O)c1nn[nH]c1Oc1cccc(C#CCc2ccccc2)c1 [Example 349, 5-(3-(3-Phenylprop-1-ynyl)phenoxy)-1H-1,2,3-triazole-4-carboxylic Acid]
– | 8.30 | O=C(O)c1nn[nH]c1Oc1ccc(C#CCc2ccccc2)cc1 [Example 348, 5-(4-(3-Phenylprop-1-ynyl)phenoxy)-1H-1,2,3-triazole-4-carboxylic Acid]
1.7 | 8.40 | O=C(O)c1nn[nH]c1Oc1cccc(C#Cc2cccc3cn[nH]c23)c1 [Example 324, 5-(3-(2-(1H-Indazol-7-yl)ethynyl)phenoxy)-1H-1,2,3-triazole-4-carboxylic Acid]

More lines, now with the values behind:

Structure (SMILES) | AUC Fold over Ex. 1 [1] | pIC50 [2]
O=C(O)c1nn[nH]c1Oc1cccc(C#CC2CCCC2)c1 [Example 29, 5-(3-(2-Cyclopentylethynyl)phenoxy)-1H-1,2,3-triazole-4-carboxylic Acid] | 2.5 | 8.00
O=C(O)c1nn[nH]c1Oc1cccc(C#CC2CCOCC2)c1 [Example 41, 5-(3-(2-(Tetrahydro-2H-pyran-4-yl)ethynyl)phenoxy)-1H-1,2,3-triazole-4-carboxylic Acid] | 0.1 | 7.89
CC(C)(C)C#Cc1ccc(Oc2[nH]nnc2C(=O)O)cc1 [Example 16, 5-(4-(3,3-Dimethylbut-1-ynyl)phenoxy)-1H-1,2,3-triazole-4-carboxylic Acid] | 0.2 | 6.68
CC(C)(C)C#Cc1cccc(Oc2[nH]nnc2C(=O)O)c1 [Example 17, 5-(3-(3,3-Dimethylbut-1-ynyl)phenoxy)-1H-1,2,3-triazole-4-carboxylic Acid] | 1.3 | 7.38
O=C(O)c1nn[nH]c1Oc1ccc(C#CC2CC2)cc1 [Example 20, 5-(4-(2-Cyclopropylethynyl)phenoxy)-1H-1,2,3-triazole-4-carboxylic Acid] | 0.8 | 7.96
N#Cc1ccc(C#Cc2cc(Oc3[nH]nnc3C(=O)O)ccc2F)cc1 [Example 268, 4-(3-((4-Cyanophenyl)ethynyl)-4-fluorophenoxy)-1H-1,2,3-triazole-5-carboxylic Acid] | 0.3 | 9.00
COc1ccc(C#Cc2cccc(Oc3[nH]nnc3C(=O)O)c2)cn1 [Example 284, 5-(3-(2-(6-Methoxypyridin-3-yl)ethynyl)phenoxy)-1H-1,2,3-triazole-4-carboxylic Acid] | 0.2 | 8.30
COc1ccc(C#Cc2ccc(Oc3[nH]nnc3C(=O)O)cc2)cn1 [Example 282, 5-(4-(2-(6-Methoxypyridin-3-yl)ethynyl)phenoxy)-1H-1,2,3-triazole-4-carboxylic Acid] | 0.5 | 8.52
O=C(O)c1nn[nH]c1Oc1cccc(C#CC2CC2)c1 [Example 21, 5-(3-(2-Cyclopropylethynyl)phenoxy)-1H-1,2,3-triazole-4-carboxylic Acid] | 2.5 | 8.05
O=C(O)c1nn[nH]c1Oc1ccc(C#CC2CCC2)cc1 [Example 24, 5-(4-(2-Cyclobutylethynyl)phenoxy)-1H-1,2,3-triazole-4-carboxylic Acid] | 0.3 | 7.80
Cc1cccc(C#Cc2ccc(Oc3[nH]nnc3C(=O)O)cc2)n1 [Example 293, 5-(4-(2-(6-Methylpyridin-2-yl)ethynyl)phenoxy)-1H-1,2,3-triazole-4-carboxylic Acid] | 0.1 | 8.30
Cc1ccc(C#Cc2cccc(Oc3[nH]nnc3C(=O)O)c2)cn1 [Example 295, 5-(3-(2-(6-Methylpyridin-3-yl)ethynyl)phenoxy)-1H-1,2,3-triazole-4-carboxylic Acid] | 0.2 | 9.00
CCCC#Cc1ccc(Oc2[nH]nnc2C(=O)O)cc1 [Example 299, 5-(4-(Pent-1-ynyl)phenoxy)-1H-1,2,3-triazole-4-carboxylic Acid] | 0.9 | 7.82
Cn1cc(C#Cc2cccc(Oc3[nH]nnc3C(=O)O)c2)cn1 [Example 221, 5-(3-(2-(1-Methyl-1H-pyrazol-4-yl)ethynyl)phenoxy)-1H-1,2,3-triazole-4-carboxylic Acid] | 0.1 | 9.00
O=C(O)c1nn[nH]c1Oc1cccc(C#Cc2ccccc2)c1 [Example 139, 5-(3-(2-Phenylethynyl)phenoxy)-1H-1,2,3-triazole-4-carboxylic Acid] | 1.1 | 8.00
O=C(O)c1nn[nH]c1Oc1ccc(C#CC2CCCC2)cc1 [Example 28, 5-(4-(2-Cyclopentylethynyl)phenoxy)-1H-1,2,3-triazole-4-carboxylic Acid] | 0.3 | 7.74
CC#Cc1cccc(Oc2[nH]nnc2C(=O)O)c1 [Example 6, 5-(3-(Prop-1-ynyl)phenoxy)-1H-1,2,3-triazole-4-carboxylic Acid] | 0.8 | 8.15
O=C(O)c1nn[nH]c1Oc1cccc(C#CC2CCC2)c1 [Example 25, 5-(3-(2-Cyclobutylethynyl)phenoxy)-1H-1,2,3-triazole-4-carboxylic Acid] | 2.9 | 7.74
CC(C)C#Cc1cccc(Oc2[nH]nnc2C(=O)O)c1 [Example 10, 5-(3-(3-Methylbut-1-ynyl)phenoxy)-1H-1,2,3-triazole-4-carboxylic Acid] | 1.6 | 7.55
CS(=O)(=O)c1ccc(Oc2[nH]nnc2C(=O)O)cc1C#Cc1ccccc1 [Example 149, 5-(4-(Methylsulfonyl)-3-(2-phenylethynyl)phenoxy)-1H-1,2,3-triazole-4-carboxylic Acid] | – | 7.85
